{"source": "patent US10766882B2", "about": "“1,2-naphthoquinone based derivative and method of preparing the same” (YUNGJIN PHARM. CO., LTD., priority 2013, dated 2020)", "key": {"Cells": {"tested_on": "Cells", "assay": "Measurement of lactate change amount within cells", "assay_type": "cell-based", "conditions": "PCA extract of cells, lactate measured from supernatant (Megazyme, K-LATE)", "method_in_brief": "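Cells were extracted in 6% perchloric acid and centrifuged (13,000 rpm, 10 min), and the dried pellet was weighed. The supernatant was neutralised with 1 M KOH, brought up in 0.33 M potassium phosphate pH 7.5 and re-centrifuged. Lactate was measured in this supernatant with a commercial lactate kit.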"}, "C57BL/6J Lep ob/ob mice": {"tested_on": "C57BL/6J Lep ob/ob mice", "assay": "Weight loss effects in obese mice (ob/ob)", "assay_type": "in vivo", "conditions": "vs 0.1% SLS controls", "method_in_brief": "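Male-unspecified C57BL/6J Lep ob/ob mice (6–15 weeks old, n=3 per group) on low-fat chow received compound by daily oral gavage (40–150 mg/kg, 10 ml/kg) for 6 days to 2 weeks, with 0.1% SLS vehicle as control. Body weight was recorded daily, gain calculated from day 1 to the day before termination, and food intake measured twice weekly.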"}, "[1]": {"conditions": "Exp. Ex. 3-1, FIG. 1: 10 week-old ob/ob mice, 40, 80, 120 mg/kg oral once every day, two weeks"}, "[2]": {"conditions": "Exp. Ex. 3-2, FIG. 2: 6 week-old ob/ob mice, 100 mg/kg oral"}, "[3]": {"conditions": "Exp. Ex. 3-10, FIG. 13: 6 week-old ob/ob mice, 100 mg/kg oral, two weeks"}, "[4]": {"conditions": "Exp. Ex. 3-11, FIG. 14: 6.5 week-old ob/ob mice, 100 mg/kg oral, one week"}, "[5]": {"conditions": "Exp. Ex. 3-12, FIG. 15: 6 week-old ob/ob mice, 100 mg/kg oral, two weeks"}, "[6]": {"conditions": "Exp. Ex. 3-13, FIG. 16: 6 week-old ob/ob mice, 100 mg/kg oral, one week"}}, "data": [{"compound": "CC(C)c1nc2c([nH]1)C(=O)C(=O)c1ccccc1-2", "note": "[Example 1, 2-isopropyl-1H-naphtho[2,1-d]imidazole-4,5-dione]", "values": [{"measurement": "Lactate change amount within cells (nmol/mg cell)", "setting": "Cells", "result": 6.1, "unit": "nmol/mg cell"}, {"measurement": "intake amount", "setting": "C57BL/6J Lep ob/ob mice; [1]", "result": "significantly decreased"}, {"measurement": "weight change", "setting": "C57BL/6J Lep ob/ob mice; [1]", "result": "significantly decreased"}, {"measurement": "weight increase ratio", "setting": "C57BL/6J Lep ob/ob mice; [1]", "result": "significantly decreased"}, {"measurement": "intake amount", "setting": "C57BL/6J Lep ob/ob mice; [2]", "result": "significantly decreased"}, {"measurement": "weight change", "setting": "C57BL/6J Lep ob/ob mice; [2]", "result": "significantly decreased"}, {"measurement": "weight increase ratio", "setting": "C57BL/6J Lep ob/ob mice; [2]", "result": "significantly decreased"}, {"measurement": "intake amount", "setting": "C57BL/6J Lep ob/ob mice; [3]", "result": "significantly decreased in some sections"}, {"measurement": "weight change", "setting": "C57BL/6J Lep ob/ob mice; [3]", "result": "significantly decreased in some sections"}, {"measurement": "weight increase ratio", "setting": "C57BL/6J Lep ob/ob mice; [3]", "result": "significantly decreased in some sections"}, {"measurement": "intake amount", "setting": "C57BL/6J Lep ob/ob mice; [4]", "result": "significantly decreased in some sections"}, {"measurement": "weight change", "setting": "C57BL/6J Lep ob/ob mice; [4]", "result": "significantly decreased in some sections"}, {"measurement": "weight increase ratio", "setting": "C57BL/6J Lep ob/ob mice; [4]", "result": "significantly decreased in some sections"}, {"measurement": "intake amount", "setting": "C57BL/6J Lep ob/ob mice; [5]", "result": "significantly decreased in some sections"}, {"measurement": "weight change", "setting": "C57BL/6J Lep ob/ob mice; [5]", "result": "significantly decreased in some sections"}, {"measurement": "weight increase ratio", "setting": "C57BL/6J Lep ob/ob mice; [5]", "result": "significantly decreased in some sections"}, {"measurement": "intake amount", "setting": "C57BL/6J Lep ob/ob mice; [6]", "result": "significantly decreased in some sections"}, {"measurement": "weight change", "setting": "C57BL/6J Lep ob/ob mice; [6]", "result": "significantly decreased in some sections"}, {"measurement": "weight increase ratio", "setting": "C57BL/6J Lep ob/ob mice; [6]", "result": "significantly decreased in some sections"}]}]}
